Test results from publication PMC9542285, “Novel amides of mycophenolic acid and some heterocyclic derivatives as immunosuppressive agents” (Journal of Enzyme Inhibition and Medicinal Chemistry, 2022).

Legend:
PBMCs [1] = assay: In vitro cytotoxicity assay with XTT dye, PBMCs; format: cell-based, human; details: Homo sapiens, PBMC, 72 h incubation then 24 h XTT, read-out: IC50 PBMCs (XTT test)
Method: (§1) Figure 2. Representative dose-response curve to determine the IC50 of MPA and A2. […] Next, plates were incubated for 24 h with XTT reagent. The conversion of water-soluble yellow tetrazolium XTT salt into orange formazan was monitored by measuring the optical density at 450 nm on microplate spectrophotometer. For XTT assay at least three experiments were performed and values are presented as mean ± SD.
(§2) The cytotoxic effect of derivatives of MPA was measured using in vitro 2,3-bis(2-methoxy-4-nitro-5-sulfophenyl)-2H-tetrazolium-5-carboxanilide (XTT)-based assay (Roche, Basel, Swiss). PBMCs suspended in complete X–VIVO20 medium and T-Jurkat cells suspended in complete RPMI-1640 medium were added on a 96-well plate at a concentration of 5 × 10^5 cells/50 µL/well. […] As a background control we used medium without cells, as a positive control we used cells untreated with compounds. After 48 h for T-Jurkat cells and 72 h for PBMCs of incubation in a humidified atmosphere with 5% CO2 at 37 °C, 50 µL of XTT reagent (freshly prepared according to the manufacturer’s procedure) was added to all samples. Plates were incubated for 24 h (5% CO2 at 37 °C). The conversion of water-soluble yellow tetrazolium XTT salt into orange formazan was monitored by measuring the optical density (OD) at 450 nm on Agilent BioTek Epoch Microplate Spectrophotometer (Agilent Technologies, Santa Clara, CA), with a background wavelength at 690 nm. […] Each sample was performed in triplicates.

[2] = In vitro cytotoxicity assay with XTT dye, T-Jurkat; format: cell-based, human; details: human, T-Jurkat cell line, […], trypan blue exclusion
Method: as §1, §2

in vitro = details: human
Method: (§4) Cell proliferation was analysed using flow cytometry. The results are expressed as the mean ± SD.
(§5) PBMCs and T-Jurkat cells were washed twice with warm PBS (37 °C), suspended in fresh PBS at a final concentration of 10–30 × 10^6 cells/mL and labelled with 1 µL of VPD450 (BD Biosciences, Franklin Lakes, NJ) at 37 °C for 15 min. Each 5 min cells were vortexed to provide uniform staining[42]^,[43]. Subsequently, cells were washed with PBS and then with complete medium (X-VIVO20 for PBMCs and RPMI-1640 for T-Jurkat cells). After this step, cells were suspended in fresh complete medium, seeded on 96-well plates (1 × 10^6 cells/well). PBMCs were additionally stimulated with magnetic beads coated with anti-CD3 and anti-CD28 antibodies (Invitrogen, Carlsbad, CA) in 1:0.5 cell:bead ratio. Of 100 µL of examined derivatives of MPA were added to experimental wells to receive final concentrations: 100; 10; 1; 0.1; 0.01 µM. In parallel, stained and not stimulated cells, as well as stained and stimulated cells, were seeded in the same concentration as controls. After 48 h for T-Jurkat and 72 h for PBMCs, cells were analysed with flow cytometer LSRFortessa (BD Biosciences, Franklin Lakes, NJ) and Kaluza C Flow Cytometry Analysis Software (Beckman Coulter, Brea, CA). […] Cell viability was determined at the highest concentration of the tested compound. For this purpose, TC20 cell counter (Biorad) was used with trypan blue exclusion.

[3] = Dye-based proliferation assay VPD450 (flow cytometry), T-Jurkat; format: cell-based, human; details: human, VPD450-labelled T-Jurkat cells, […], trypan blue exclusion
Method: (§3) Figure 4. […] Cell proliferation was analysed using flow cytometry.

PBMCs [4] = assay: cells; details: Homo sapiens, PBMC, 72 h, read-out: EC50 PBMCs (VPD450 proliferation), PBMCs stimulated with anti-CD3/anti-CD28 beads, 72 h
Method: as §4, §5

T-Jurkat cells = assay: Dye-based proliferation assay VPD450 (flow cytometry), T-Jurkat; format: cell-based, human; details: Homo sapiens, 48 h
Method: as §3

T-Jurkat cell line = assay: In vitro cytotoxicity assay with XTT dye, T-Jurkat; format: cell-based, human; details: Homo sapiens, 48 h incubation then 24 h XTT, read-out: IC50 T-Jurkat (XTT test)
Method: as §1, §2

PBMCs [5] = assay: VPD450 proliferation of PBMCs with or without GMP (IMPDH mechanism test); format: cell-based, human; details: for Mechanism of action (IMPDH inhibition, GMP reversal): PBMCs, with or without 50 µM GMP, 72 h
Method: According to reported experiment, suppression of cell proliferation caused by IMPDH inhibitors in the presence of guanosine source, e.g. gunosine monophosphate (GMP) is reversible.
Figure 5. […] Cell proliferation was analysed using flow cytometry.
Cells proliferation was analyzed using flow cytometry.
(1 picture or pasted object on this page, not shown here)

[6] = Precipitation / solubility of compounds in culture; format: physicochemical; design: key to Precipitating compound flag (XTT test, PBMCs) / Precipitating compound flag (VPD450 assay, PBMCs): (↓) – precipitating compound; details: for Precipitating compound flag (VPD450 assay, PBMCs) / Precipitating compound flag (XTT test, PBMCs): PBMC culture, DMSO with Tween20; for Solubility in PBMC culture: XTT assay conditions
Method: Drug toxicity that affects the cells can cause a variety of serious side effects, including uncontrolled suppression of the immune system. In order to check the cytotoxicity of the tested compounds, the XTT test was performed, the results of which are presented in Table 2. All tested compounds were characterised by lower cytotoxicity than native MPA. Unfortunately, several compounds (marked with ↓) were partially insoluble in culture despite surfactant addition. They were investigated too, but one could not use them as an immunosuppressive drug in their current form. Taking into account the EC50 values obtained in the proliferation tests ([…] staining, Table 3), the compound A2 was selected as the one with the highest immunosuppressive potential and the possibility of its later use in therapy, and is presented in the graphs (Figures 2–4).
To prepare appropriate concentrations of tested compounds, the substances were dissolved in DMSO (Sigma Aldrich, Poland) with 1% addition of Tween20 to obtain final concentration of 0.01 M. The solution was diluted 10-fold and then 5-fold in appropriate medium without additives (RPMI-1640 for T-Jurkat cell line; X-VIVO20 for PBMCs) to obtain the following concentrations: 200; 20; 2; 0.2; 0.02 µM.

[7] = In vitro cytotoxicity assay with XTT dye, PBMCs; format: cell-based, human; details: human, […], trypan blue exclusion
Method: as §1, §2

melting point	EC50 (T-Jurkat cells) [µM]	Precipitating compound flag (VPD450 assay, PBMCs) [6]	Precipitating compound flag (XTT test, PBMCs) [6]	Solubility in PBMC culture [6]	SMILES	IC50 (PBMCs [1]) [µM]	viability at 48 h, 100 µM [2] [%]	viability at 72 h, 100 µM (in vitro) [%]	viability at 48 h, 100 µM [3] [%]	EC50 (PBMCs [4]) [µM]	IC50 (T-Jurkat cell line) [µM]	Mechanism of action (IMPDH inhibition, GMP reversal) (PBMCs [5])	viability at 72 h, 100 µM [7] [%]	Effect of GMP addition on proliferation (PBMCs [5])
–	–	–	–	–	COc1c(C)c2c(c(O)c1C/C=C(\C)CCC(=O)Nc1nc3ccccc3s1)C(=O)OC2 [A1, N-(benzo[d]thiazol-2-yl) mycophenolate]	74.57 ± 0.04	68	82	–	–	–	–	–	–
253 to 255 °C (dec.)	–	–	–	–	COc1c(C)c2c(c(O)c1C/C=C(\C)CCC(=O)Nc1nc3ccccc3[nH]1)C(=O)OC2 [A3, N-(1H-benzo[d]imidazol-2-yl) mycophenolate]	94.538 ± 0.047	74	–	55	120	–	–	–	–
175 to 177 °C	14.73 ± 0.074	–	–	–	COc1c(C)c2c(c(O)c1C/C=C(\C)CCC(=O)Nc1ccc3ncsc3c1)C(=O)OC2 [A4, N-(benzo[d]thiazol-6-yl) mycophenolate]	24.639 ± 0.015	–	–	–	62.26 ± 0.01	37.789 ± 0.002	–	–	–
114 to 117 °C	36.05 ± 0.18	–	–	–	COc1c(C)c2c(c(O)c1C/C=C(\C)CCC(=O)Nc1ccc3scnc3c1)C(=O)OC2 [A5, N-(benzo[d]thiazol-5-yl) mycophenolate]	45.73 ± 0.023	–	–	–	76.98 ± 0.01	75.04 ± 0.005	–	–	–
84 to 87 °C	13.84 ± 0.069	–	–	–	COc1c(C)c2c(c(O)c1C/C=C(\C)CCC(=O)Nc1ccc3ocnc3c1)C(=O)OC2 [A6, N-(benzo[d]oxazol-5-yl) mycophenolate]	55.487 ± 0.028	–	–	–	58.27 ± 0.021	31.407 ± 0.002	–	–	–
107 to 110 °C	9.51 ± 0.047	–	–	–	COc1c(C)c2c(c(O)c1C/C=C(\C)CCC(=O)NCc1ncccn1)C(=O)OC2 [A7, N-[1-(pirymidin-2-yl)methyl] mycophenolate]	70.48 ± 0.035	–	–	–	29.45 ± 0.025	10.739 ± 0.003	consistent with that of MPA	–	–
–	22.04 ± 0.11	(↓)	(↓)	limited solubility	COc1ccc2nc(NC(=O)CC/C(C)=C/Cc3c(O)c4c(c(C)c3OC)COC4=O)sc2c1 [A8, N-(6-methoxybenzo[d]thiazol-2-yl) mycophenolate]	93.196 ± 0.047	–	–	–	133.5 ± 0.007	51.124 ± 0.008	–	–	–
257 to 260 °C (dec.)	22.72 ± 0.113	(↓)	(↓)	limited solubility	COc1c(C)c2c(c(O)c1C/C=C(\C)CCC(=O)Nc1nc3ccc(C)cc3s1)C(=O)OC2 [A9, N-(6-methylbenzo[d]thiazol-2-yl) mycophenolate]	94.6 ± 0.047	–	–	–	136.2 ± 0.011	85.7 ± 0.004	–	–	–
246 to 247 °C (dec.)	26.69 ± 0.133	–	–	–	COc1c(C)c2c(c(O)c1C/C=C(\C)CCC(=O)Nc1nc3cc(C)c(C)cc3s1)C(=O)OC2 [A10, N-(5,6-dimethylbenzo[d]thiazol-2-yl) mycophenolate]	129.41 ± 0.064	51	–	–	85.24 ± 0.012	–	–	–	–
232 to 236 °C (dec.)	63.21 ± 0.316	(↓)	(↓)	limited solubility	COc1c(C)c2c(c(O)c1C/C=C(\C)CCC(=O)Nc1nc3ccc(F)cc3s1)C(=O)OC2 [A11, N-(6-fluorobenzo[d]thiazol-2-yl) mycophenolate]	139.86 ± 0.07	56	–	–	83.07 ± 0.012	–	–	–	–
261 to 264 °C (dec.)	12.16 ± 0.061	(↓)	(↓)	limited solubility	COc1c(C)c2c(c(O)c1C/C=C(\C)CCC(=O)Nc1nc3ccc(Cl)cc3s1)C(=O)OC2 [A12, N-(6-chlorobenzo[d]thiazol-2-yl) mycophenolate]	62.975 ± 0.031	–	–	–	38.37 ± 0.017	12.833 ± 0.008	–	–	–
265 to 267 °C (dec.)	12.64 ± 0.063	–	–	–	COc1c(C)c2c(c(O)c1C/C=C(\C)CCC(=O)Nc1nc3ccc(Br)cc3s1)C(=O)OC2 [A13, N-(6-bromobenzo[d]thiazol-2-yl) mycophenolate]	63.173 ± 0.032	–	–	–	39.47 ± 0.013	58.069 ± 0.002	–	–	–
261 to 264 °C (dec.)	12.58 ± 0.063	–	–	–	COc1c(C)c2c(c(O)c1C/C=C(\C)CCC(=O)Nc1nc3ccc(C(F)(F)F)cc3s1)C(=O)OC2 [A14, N-[6-(trifluoromethyl)benzo[d]thiazol-2-yl] mycophenolate]	81.482 ± 0.041	–	–	–	30.71 ± 0.008	34.749 ± 0.003	–	–	–
278 to 280 °C (dec.)	13.37 ± 0.067	(↓)	(↓)	limited solubility	COc1c(C)c2c(c(O)c1C/C=C(\C)CCC(=O)Nc1nc3ccc([N+](=O)[O-])cc3s1)C(=O)OC2 [A15, N-(6-nitrobenzo[d]thiazol-2-yl) mycophenolate]	137.63 ± 0.069	–	–	–	44.59 ± 0.013	12.717 ± 0.005	–	–	–
165 to 168 °C	–	(↓)	(↓)	limited solubility	COc1c(C)c2c(c(O)c1C/C=C(\C)CCC(=O)Nc1nc3c(OC)cccc3s1)C(=O)OC2 [A16, N-(4-methoxybenzo[d]thiazol-2-yl) mycophenolate]	54.578 ± 0.027	69	–	73	46.29 ± 0.011	–	–	–	–
173 to 176 °C	–	(↓)	– (↓)	limited solubility	COc1c(C)c2c(c(O)c1C/C=C(\C)CCC(=O)Nc1nc3c(C)cccc3s1)C(=O)OC2 [A17, N-(4-methylbenzo[d]thiazol-2-yl) mycophenolate]	–	82	–	69	82.1	–	–	65	–
–	11.28 ± 0.056	–	–	–	COc1c(C)c2c(c(O)c1C/C=C(\C)CCC(=O)Nc1nc3c(Cl)cccc3s1)C(=O)OC2 [A18, N-(4-chlorobenzo[d]thiazol-2-yl) mycophenolate]	74.426 ± 0.037	–	–	–	14.7 ± 0.02	10.261 ± 0.001	consistent with that of MPA	–	–

SMILES	melting point	EC50 (T-Jurkat cells) [µM]	Precipitating compound flag (VPD450 assay, PBMCs) [6]	Precipitating compound flag (XTT test, PBMCs) [6]	Solubility in PBMC culture [6]	IC50 (PBMCs [1]) [µM]	viability at 48 h, 100 µM [2] [%]	viability at 72 h, 100 µM (in vitro) [%]	viability at 48 h, 100 µM [3] [%]	EC50 (PBMCs [4]) [µM]	IC50 (T-Jurkat cell line) [µM]	Mechanism of action (IMPDH inhibition, GMP reversal) (PBMCs [5])	viability at 72 h, 100 µM [7] [%]	Effect of GMP addition on proliferation (PBMCs [5])
COc1c(C)c2c(c(O)c1C/C=C(\C)CCC(=O)O)C(=O)OC2 [MPA, Mycophenolic acid]	–	0.49 ± 0.002	–	–	–	10.52 ± 0.015	–	–	–	0.723 ± 0.011	0.509 ± 0.008	–	–	proliferation increases after the addition of GMP
